Read-outs that look alike come from different tables or passages of the source.
How the values were obtained:
Jurkat cells = assay: Cell proliferation (CellTiter-Glo, 72 hour), Jurkat; type: cell-based; details: Homo sapiens, blood cancer cell line
CDK7 = molecular target: T1, CDK7 (Homo sapiens, UniProt P50613); assay: Adapta kinase assay (Life Technologies), CDK7; type: biochemical
T1 construct: purchased Life Technologies (assay service)

[1] = Table 1C, co-factors cyclin H and MNAT1, read-out: CDK7 IC50

T1 sequence (P50613 whole entry): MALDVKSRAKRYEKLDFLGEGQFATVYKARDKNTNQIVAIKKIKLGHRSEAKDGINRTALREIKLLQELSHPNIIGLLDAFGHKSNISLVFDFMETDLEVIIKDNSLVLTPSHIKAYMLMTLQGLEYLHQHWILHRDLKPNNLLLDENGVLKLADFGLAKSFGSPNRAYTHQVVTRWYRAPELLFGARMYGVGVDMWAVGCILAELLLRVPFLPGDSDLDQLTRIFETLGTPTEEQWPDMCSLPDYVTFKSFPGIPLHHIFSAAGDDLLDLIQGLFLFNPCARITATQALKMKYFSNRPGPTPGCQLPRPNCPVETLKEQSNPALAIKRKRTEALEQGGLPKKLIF
T1 sequence (P51946 whole entry partner): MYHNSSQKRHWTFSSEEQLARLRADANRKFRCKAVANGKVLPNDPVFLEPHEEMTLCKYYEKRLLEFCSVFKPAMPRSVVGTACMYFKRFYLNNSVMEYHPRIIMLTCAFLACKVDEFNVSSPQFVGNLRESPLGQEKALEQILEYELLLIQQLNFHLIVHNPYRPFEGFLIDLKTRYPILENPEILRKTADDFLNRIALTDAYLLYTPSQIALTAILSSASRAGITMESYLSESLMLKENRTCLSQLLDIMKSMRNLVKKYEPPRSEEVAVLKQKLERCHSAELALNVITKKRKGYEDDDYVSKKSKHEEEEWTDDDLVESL
T1 sequence (P51948 whole entry partner): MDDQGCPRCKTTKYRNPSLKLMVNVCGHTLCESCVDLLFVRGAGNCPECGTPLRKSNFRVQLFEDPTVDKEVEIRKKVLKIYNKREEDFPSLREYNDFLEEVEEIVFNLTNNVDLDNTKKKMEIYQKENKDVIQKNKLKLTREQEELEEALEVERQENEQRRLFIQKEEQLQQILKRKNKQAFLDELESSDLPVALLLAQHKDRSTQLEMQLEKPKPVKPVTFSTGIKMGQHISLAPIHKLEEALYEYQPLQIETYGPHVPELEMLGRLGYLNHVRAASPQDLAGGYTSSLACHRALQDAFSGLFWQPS

## CN(C)C/C=C/C(=O)Nc1ccc(C(=O)NC2CC(O)CC(Nc3ncc(Cl)c(-c4c[nH]c5ccccc45)n3)C2)cc1 (racemic) [Compound 109, (+/−)-N-(-3-(5-chloro-4-(1H-indol-3-yl)pyrimidin-2-ylamino)-5-hydroxycyclohexyl)-4-((E)-4-(dimethylamino)but-2-enamido)benzamide]
Jurkat cells
  IC50: < 500 nM
CDK7; [1]
  IC50: < 100 nM

## CN(C)C/C=C/C(=O)Nc1ccc(C(=O)NC2CC(F)CC(Nc3ncc(Cl)c(-c4c[nH]c5ccccc45)n3)C2)cc1 (racemic) [Compound 119, (+/−)-N-(3-(5-chloro-4-(1H-indol-3-yl)pyrimidin-2-ylamino)-5-fluorocyclohexyl)-4-((E)-4-(dimethylamino)but-2-enamido)benzamide]
Jurkat cells
  IC50: < 500 nM
CDK7; [1]
  IC50: < 100 nM

## CN(C)C/C=C/C(=O)Nc1ccc(C(=O)NC2CC(Nc3ncc(Cl)c(-c4c[nH]c5ccccc45)n3)CC(F)(F)C2)cc1 (racemic) [Compound 122, (+/−)-N-(5-(5-chloro-4-(1H-indol-3-yl)pyrimidin-2-ylamino)-3,3-difluorocyclohexyl)-4-((E)-4-(dimethylamino)but-2-enamido)benzamide]
Jurkat cells
  IC50: < 500 nM
CDK7; [1]
  IC50: < 100 nM

## CN(C)C/C=C/C(=O)Nc1ccc(C(=O)NC2CCC(Nc3ncc(Cl)c(-c4c[nH]c5ccccc45)n3)CC2)cc1 (stereo not shown) [Compound 105]
CDK7; [1]
  IC50: < 100 nM
CDK7; Table 2, co-factors cyclin H and MNAT1, read-out: CDK7 (calculated IC50)
  IC50: < 100 nM

## CN(C)C/C=C/C(=O)Nc1ccc(C(=O)N[C@H]2CC[C@H](Nc3ncc(Cl)c(-c4c[nH]c5ccccc45)n3)CC2)cc1 [Compound 106]
CDK7; [1]
  IC50: < 100 nM

## CN(C)C/C=C/C(=O)Nc1ccc(C(=O)NC23CC4CC(C2)CC(Nc2ncc(Cl)c(-c5c[nH]c6ccccc56)n2)(C4)C3)cc1 [Compound 108, (E)-N-(3-(5-chloro-4-(1H-indol-3-yl)pyrimidin-2-ylamino)tricyclo[3.3.1.1^3,7]decanyl)-4-(4-(dimethylamino)but-2-enamido)benzamide]
Jurkat cells
  IC50: 500 to 5000 nM
CDK7; [1]
  IC50: 100 to 1000 nM

## O=C(/C=C/CN1CCOCC1)Nc1ccc(C(=O)N[C@H]2CCC[C@@H](Nc3ncc(Cl)c(-c4c[nH]c5ccccc45)n3)C2)cc1 [Compound 110, N-((1S,3R)-3-(5-chloro-4-(1H-indol-3-yl)pyrimidin-2-ylamino)cyclohexyl)-4-((E)-4-morpholinobut-2-enamido)benzamide]
Jurkat cells
  IC50: < 500 nM
CDK7; [1]
  IC50: < 100 nM

## CN1CCN(C/C=C/C(=O)Nc2ccc(C(=O)N[C@H]3CCC[C@@H](Nc4ncc(Cl)c(-c5c[nH]c6ccccc56)n4)C3)cc2)CC1 [Compound 111, N-((1S,3R)-3-(5-chloro-4-(1H-indol-3-yl)pyrimidin-2-ylamino)cyclohexyl)-4-((E)-4-(4-methylpiperazin-1-yl)but-2-enamido)benzamide]
Jurkat cells
  IC50: < 500 nM
CDK7; [1]
  IC50: < 100 nM

## C=CC(=O)Nc1ccc(C(=O)N[C@H]2CCC[C@@H](Nc3ncc(Cl)c(-c4c[nH]c5ccccc45)n3)C2)cc1 [Compound 112, 4-acrylamido-N-((1S,3R)-3-(5-chloro-4-(1H-indol-3-yl)pyrimidin-2-ylamino)cyclohexyl)benzamide]
Jurkat cells
  IC50: < 500 nM
CDK7; [1]
  IC50: < 100 nM

## C=C(C)C(=O)Nc1ccc(C(=O)N[C@H]2CCC[C@@H](Nc3ncc(Cl)c(-c4c[nH]c5ccccc45)n3)C2)cc1 [Compound 113, N-((1S,3R)-3-(5-chloro-4-(1H-indol-3-yl)pyrimidin-2-ylamino)cyclohexyl)-4-methacrylamidobenzamide]
Jurkat cells
  IC50: 500 to 5000 nM
CDK7; [1]
  IC50: 100 to 1000 nM

## CN(C)C/C=C/C(=O)Nc1ccc(NC(=O)[C@H]2CCC[C@@H](Nc3ncc(Cl)c(-c4c[nH]c5ccccc45)n3)C2)cc1 [Compound 114, (1S,3R,E)-3-(5-chloro-4-(1H-indol-3-yl)pyrimidin-2-ylamino)-N-(4-(4-(dimethylamino)but-2-enamido)phenyl)cyclohexanecarboxamide]
Jurkat cells
  IC50: < 500 nM
CDK7; [1]
  IC50: < 100 nM

## CN(C)C/C=C/C(=O)Nc1ccc(C(=O)N[C@H]2CCC[C@@H](Nc3ncc(C4CC4)c(-c4c[nH]c5ccccc45)n3)C2)cc1 [Compound 115, N-((1S,3R)-3-(5-cyclopropyl-4-(1H-indol-3-yl)pyrimidin-2-ylamino)cyclohexyl)-4-((E)-4-(dimethylamino)but-2-enamido)benzamide]
Jurkat cells
  IC50: < 500 nM
CDK7; [1]
  IC50: < 100 nM

## CN(C)C/C=C/C(=O)Nc1ccc(C(=O)N[C@H]2CCC[C@@H](Nc3ncc(Cl)c(-c4cccnc4)n3)C2)cc1 [Compound 116, N-((1S,3R)-3-(5-chloro-4-(pyridin-3-yl)pyrimidin-2-ylamino)cyclohexyl)-4-((E)-4-(dimethylamino)but-2-enamido)benzamide]
Jurkat cells
  IC50: < 500 nM
CDK7; [1]
  IC50: 100 to 1000 nM

## CN(C)C/C=C/C(=O)Nc1ccc(C(=O)N[C@H]2CCC[C@@H](Nc3ncc(C#N)c(-c4c[nH]c5ccccc45)n3)C2)cc1 [Compound 117, N-((1S,3R)-3-(5-cyano-4-(1H-indol-3-yl)pyrimidin-2-ylamino)cyclohexyl)-4-((E)-4-(dimethylamino)but-2-enamido)benzamide]
Jurkat cells
  IC50: < 500 nM
CDK7; [1]
  IC50: < 100 nM

## CC(C)=CC(=O)Nc1ccc(C(=O)N[C@H]2CCC[C@@H](Nc3ncc(Cl)c(-c4c[nH]c5ccccc45)n3)C2)cc1 [Compound 118, N-((1S,3R)-3-(5-chloro-4-(1H-indol-3-yl)pyrimidin-2-ylamino)cyclohexyl)-4-(3-methylbut-2-enamido)benzamide]
Jurkat cells
  IC50: 500 to 5000 nM
CDK7; [1]
  IC50: 100 to 1000 nM

## CN(C)C/C=C/C(=O)Nc1ccc(C(=O)N[C@@H]2C[C@H](F)C[C@H](Nc3ncc(Cl)c(-c4c[nH]c5ccccc45)n3)C2)cc1 [Compound 120, N-((1S,3R,5R)-3-(5-chloro-4-(1H-indol-3-yl)pyrimidin-2-ylamino)-5-fluorocyclohexyl)-4-((E)-4-(dimethylamino)but-2-enamido)benzamide]
Jurkat cells
  IC50: 500 to 5000 nM
CDK7; [1]
  IC50: 100 to 1000 nM

## CN(C)C/C=C/C(=O)Nc1ccc(C(=O)NC23CCCC(Nc4ncc(Cl)c(-c5c[nH]c6ccccc56)n4)(C2)C3)cc1 [Compound 121, (E)-N-(5-(5-chloro-4-(1H-indol-3-yl)pyrimidin-2-ylamino)bicyclo[3.1.1]heptan-1-yl)-4-(4-(dimethylamino)but-2-enamido)benzamide]
Jurkat cells
  IC50: < 500 nM
CDK7; [1]
  IC50: < 100 nM

## CN(C)C/C=C/C(=O)Nc1ccc(S(=O)(=O)N[C@H]2CCC[C@@H](Nc3ncc(Cl)c(-c4c[nH]c5ccccc45)n3)C2)cc1 [Compound 123, (E)-N-(4-(N-((1S,3R)-3-(5-chloro-4-(1H-indol-3-yl)pyrimidin-2-ylamino)cyclohexyl)sulfamoyl)phenyl)-4-(dimethylamino)but-2-enamide]
Jurkat cells
  IC50: < 500 nM
CDK7; [1]
  IC50: 100 to 1000 nM

## O=C(/C=C/CO)Nc1ccc(C(=O)N[C@H]2CCC[C@@H](Nc3ncc(Cl)c(-c4c[nH]c5ccccc45)n3)C2)cc1 [Compound 124, N-((1S,3R)-3-(5-chloro-4-(1H-indol-3-yl)pyrimidin-2-ylamino)cyclohexyl)-4-((E)-4-hydroxybut-2-enamido)benzamide]
Jurkat cells
  IC50: < 500 nM
CDK7; [1]
  IC50: < 100 nM

## CN(C)C/C=C/C(=O)Nc1ccc(C(=O)N[C@H]2CCC[C@@H](Nc3ncc(Cl)c(-c4c[nH]c5ccccc45)n3)C2)cc1F [Compound 126, N-((1S,3R)-3-(5-chloro-4-(1H-indol-3-yl)pyrimidin-2-ylamino)cyclohexyl)-4-((E)-4-(dimethylamino)but-2-enamido)-3-fluorobenzamide]
Jurkat cells
  IC50: < 500 nM
CDK7; [1]
  IC50: < 100 nM

## CN(C)C/C=C/C(=O)Nc1ccc(CN(C(=O)OC(C)(C)C)[C@H]2CCC[C@@H](Nc3ncc(Cl)c(-c4c[nH]c5ccccc45)n3)C2)cc1 [Compound 127, tert-butyl (1S,3R)-3-(5-chloro-4-(1H-indol-3-yl)pyrimidin-2-ylamino) cyclohexyl(4-((E)-4-(dimethylamino)but-2-enamido)benzyl)carbamate]
Jurkat cells
  IC50: 500 to 5000 nM
CDK7; [1]
  IC50: 100 to 1000 nM

## CN(C)C/C=C/C(=O)Nc1ccc(C(=O)N[C@H]2CCC[C@@H](Nc3nccc(-c4c[nH]c5ccccc45)n3)C2)cc1 [Compound 132, N-((1S,3R)-3-(4-(1H-indol-3-yl)pyrimidin-2-ylamino)cyclohexyl)-4-((E)-4-(dimethylamino)but-2-enamido)benzamide]
CDK7; [1]
  IC50: > 1000 nM

## C=CC(=O)Nc1ccc([C@@H](N[C@H]2CCC[C@@H](Nc3ncc(Cl)c(-c4c[nH]c5ccccc45)n3)C2)C(F)(F)F)cc1 [Compound 136, N-(4-((R)-1-((1S,3R)-3-(5-chloro-4-(1H-indol-3-yl)pyrimidin-2-ylamino)cyclohexylamino)-2,2,2-trifluoroethyl)phenyl)acrylamide]
CDK7; [1]
  IC50: > 1000 nM

## CN(C)C/C=C/C(=O)Nc1ccc(C(=O)N[C@H]2CCC[C@@H](Nc3ncc(Cl)c(-c4cn(C)c5ccccc45)n3)C2)cc1 [Compound 150]
CDK7; [1]
  IC50: < 100 nM

## C=CC(=O)Nc1ccc(C(=O)N[C@H]2CCC[C@@H](Nc3ncc(Cl)c(-c4n[nH]c5ccccc45)n3)C2)cc1 [Compound 151, 4-acrylamido-N-((1S,3R)-3-((5-chloro-4-(1H-indazol-3-yl)pyrimidin-2-yl)amino)cyclohexyl)benzamide]
CDK7; [1]
  IC50: < 100 nM

## C=CC(=O)Nc1ccc(C(=O)N[C@H]2CCC[C@@H](Nc3ncc(Cl)c(-c4c(C)[nH]c5ccccc45)n3)C2)cc1 [Compound 153, 4-acrylamido-N-((1S,3R)-3-((5-chloro-4-(2-methyl-1H-indol-3-yl)pyrimidin-2-yl)amino)cyclohexyl)benzamide]
CDK7; [1]
  IC50: < 100 nM

## Cc1[nH]c2ccccc2c1-c1nc(N[C@@H]2CCC[C@H](NC(=O)c3ccc(NC(=O)/C=C/CN(C)C)cc3)C2)ncc1Cl [Compound 154, N-((1S,3R)-3-((5-chloro-4-(2-methyl-1H-indol-3-yl)pyrimidin-2-yl)amino)cyclohexyl)-4-((E)-4-(dimethylamino)but-2-enamido)benzamide]
CDK7; [1]
  IC50: < 100 nM

## C=CC(=O)Nc1cccc(CO[C@H]2CC[C@H](Nc3ncc(Cl)c(-c4c[nH]c5ccccc45)n3)CC2)c1 [Compound 155, N-(3-((((1R,4R)-4-((5-chloro-4-(1H-indol-3-yl)pyrimidin-2-yl)amino)cyclohexyl)oxy)methyl)phenyl)acrylamide]
CDK7; [1]
  IC50: > 1000 nM

## CON(C)C/C=C/C(=O)Nc1ccc(C(=O)N[C@H]2CCC[C@@H](Nc3ncc(Cl)c(-c4c[nH]c5ccccc45)n3)C2)cc1 [Compound 160]
CDK7; [1]
  IC50: 100 to 1000 nM

Reference: patent US10906889B2, “Polycyclic inhibitors of cyclin-dependent kinase 7 (CDK7)” (Dana-Farber Cancer Institute, Inc., priority 2013, dated 2021)
